Test results published in US4552898A, “[3.2.0]Bicycloheptanone oxime ethers with valuable therapeutic properties” (Syntex (U.S.A.) Inc., priority 1983, dated 1985).

Tested on: not listed separately
Experiment: Acute toxicity in mice, single intraperitoneal administration
Set-up: species or system Male Sim: (SW)f BR mice
Details: mouse, in vivo, ip
Experimental: Male Sim: (SW)f BR mice weighing approximately 25 g were randomly assigned to treatment groups of 6 animals, caged together, and were given food and water ad libitum.
The test material was prepared as an aqueous solution or suspension in CMC vehicle (sodium carboxymethyl cellulose, 0.5 g; sodium chloride, 0.9 g; benzyl alcohol, 0.9 ml; Tween 80, 0.4 ml; and water to 100 ml). The test material and the control vehicle were administered once by the indicated route at a dose level of 10 ml per kg body weight.
Following administration of the test material on day 1, animals were observed daily and any deaths were recorded.

Row | SMILES | LD50 [mg/kg]
1 | CCCCCC(O)C#CC1CC2C(=NOCCC(=O)O)CC2C1O (stereo not drawn) [Test Material] | > 120

Tested on: human platelet-rich plasma
Experiment: In vitro human platelet aggregation inhibition (turbidimetric)
Assay type: cell-based
Details: ADP inducer
Experimental: Biological activity of the claimed compounds is tested by in vitro human platelet aggregation assay. This assay determines the effectiveness of the compounds in inhibiting the platelet aggregation
Immediately thereafter, the platelets start to secrete large quantities of adenosine diphosphate (ADP) which, in turn activates the other platelets that adhere to the original platelets and eventually form the plug which closes the rupture of the vascular wall. In medical parlance the first process is called collagen-induced primary platelet aggregation, the second process is called ADP-mediated secondary platelet aggregation. This situation can be artificially simulated by natural platelet aggregation inducers such as collagen, ADP, or arachidonic acid to the human platelet-rich plasma.
The blood samples used for the assay are collected into sodium citrate anticoagulant of a final concentration of 0.38%. The platelet-rich plasma is collected after centrifugation at 200 rpm at room temperature. To determine whether the platelet-rich plasma needs dilution to obtain optimal optical density, citrated plasma containing […] platelets per milliliter is pipetted into a Spinco transparent plastic centrifuge tube. The tube is inserted into a Unicam SP 400 absorptiometer and the light at the wave-length of 600 mμ is passed through the tube. The dark current is set at infinity and the optical density of distilled water at zero. The plasma is stirred by a magnetic stirrer. If necessary, platelet-rich plasma is diluted with 0.154M sodium chloride to obtain appropriate optical density
Platelet-rich plasma of appropriate optical density is mixed with appropriate concentration of tested compounds to make up 1 ml of mixture of platelet-rich plasma and tested compound. The concentration of each tested compound varied from 1.0×10^-5 moles to 1.0×10^-9 moles. Each concentration is tested individually by number of repetitions varying from 1 to 6. Each sample mixture consisting of platelet-rich plasma and tested compound is incubated for about 3 to 5 minutes under constant stirring at 500 rpm at 30° C. Thereafter, a predetermined optimal concentration of platelet aggregation inducer is added to each sample mixture. Inducers which are used for testing may be chosen from: […]
Adenosine Diphosphate (ADP) is purchased from Sigma Chemical Company. ADP inducer solution of final concentration of 5 μmol is prepared by dissolving 214 mg of ADP in 1 ml of tris buffer (0.01M at pH 9 at 22° C.). […]
A tube with the mixture of platelet-rich plasma, tested compound and ADP inducer (5 μmol/10 μl) is inserted into the absorptiometer and optical density changes are recorded on chart. Aggregation of the platelets is determined from maximal optical density change. Maximal optical density of a mixture of platelet-rich plasma with inducer, but without the tested compounds, is taken as 100% of platelet aggregation. The maximal optical density of the sample mixture of platelet-rich plasma, ADP inducer and appropriate amount of tested compound is compared to the maximal optical density of the sample without tested compound and inhibitory effectiveness of tested compounds is calculated. For each sample the percentage of the platelet aggregation is calculated and if more than one measurement with the same concentration of the tested compounds are done, the final value is expressed as an average of all measurements with ±S.E. The inhibitory concentration is the effective concentration of tested compound which is able to prevent 50% of the platelet aggregation, where, without the tested compound, the platelet aggregation would have been 100%. PGE1 has an IC50 of 2-8×10^-8 M.

Row | SMILES | IC50 [nM]
2 | O=C(O)CON=C1CC2C1CC(/C=C/C(O)C1CCCC1)C2O (stereo not drawn) [Compound 5] | 11.2
3 | CCCCCC(O)C#CC1CC2C(=NOCCC(=O)O)CC2C1O (stereo not drawn) [Compound 23, N--[2-endo-hydroxy-3-exo-(3-hydroxyoct-1-ynyl)bicyclo[3.2.0]hept-6-ylidene] -3-aminooxypropionic acid] | 175
4 | CCCCCC(O)C#CC1CC2C(=NOCC(=O)O)CC2C1O (stereo not drawn) [Compound 1, N--[2-endo-hydroxy-3-exo-(3αS--hydroxyoct-1-ynyl)bicyclo[3.2.0]hept-6-ylidene]aminooxyacetic acid] | 18.6
5 | CCCCCC(O)C#CC1CC2C(=NOCC(=O)O)CC2C1O (stereo not drawn) [Compound 11, N--[2-endo-hydroxy-3-exo-(3αβS--hydroxyoct-1-ynyl)bicyclo[3.2.0]hept-6-ylidene]aminooxyacetic acid] | 70
6 | CCCCCC(O)C#CC1CC2C(=NOCCC(=O)O)CC2C1O (stereo not drawn) [Compound 24, N--[2-endo-hydroxy-3-exo-(3αβS--hydroxyoct-1-ynyl)bicyclo[3.2.0]hept-6-ylidene]-3-aminooxypropionic acid] | 43
7 | CCCCCC(O)C#CC1CC2C(=NOCCC(=O)O)CC2C1O (stereo not drawn) [Compound 12, N--[2-endo-hydroxy-3-exo-(3αS--hydroxyoct-1-ynyl)bicyclo[3.2.0]hept-6-ylidene]-3-aminooxypropionic acid] | 31

Second part, the molecule after the results:

Row | IC50 [nM] | SMILES
8 | 81 | O=C(O)CCON=C1CC2C1CC(/C=C/C(O)C1CCCCC1)C2O (stereo not drawn) [Compound 19, N--[2-endo-hydroxy-3-exo-(3α-hydroxy-3-cyclohexylprop-1-trans-enyl)bicyclo[3.2.0]hept-6-ylidene]-3-aminooxypropionic acid]
9 | 10.5 | O=C(O)CCON=C1CC2C1CC(/C=C/C(O)C1CCCC1)C2O (stereo not drawn) [Compound 16, N--[2-endo-hydroxy-3-exo-(3α-hydroxy-3-cyclopentylprop-1-trans-enyl)bicyclo[3.2.0]hept-6-ylidene]-3-aminooxypropionic acid]

Same assay, conditions: Homo sapiens, Platelet, ADP inducer

Row | SMILES | IC50 [nM]
10 | O=C(O)CON=C1CC2C1CC(C#CC(O)C1CCCCC1)C2O (stereo not drawn) [Compound 7, N--[2-endo-hydroxy-3-exo-(3-hydroxy-3-cyclohexylprop-1-ynyl)bicyclo[3.2.0]hept-6-ylidene]aminooxyacetic acid] | 24
11 | CCCCCC(O)C=CC1CC2C(=NOCC(=O)O)CC2C1O (stereo not drawn) [Compound 2, N--[2-endo-hydroxy-3-exo-(3αS--hydroxyoct-1-trans-enyl)bicyclo[3.2.0]hept-6-ylidene]aminooxyacetic acid] | 89
12 | CCCCCCCC(O)C#CC1CC2C(=NOCC(=O)O)CC2C1O (stereo not drawn) [Compound 9, N--[2-endo-hydroxy-3-exo-(3-hydroxydec-1-ynyl)bicyclo[3.2.0]hept-6-ylidene]aminooxyacetic acid] | 32
13 | O=C(O)CON=C1CC2C1CC(CCC(O)C1CCCC1)C2O (stereo not drawn) [Compound 6, N--[2-endo-hydroxy-3-exo-(3-hydroxy-3-cyclopentylprop-1-yl)bicyclo[3.2.0]hept-6-ylidene]aminooxyacetic acid] | 1000
14 | CCCCCC(O)CCC1CC2C(=NOCC(=O)O)CC2C1O (stereo not drawn) [Compound 3, N--[2-endo-hydroxy-3-exo-(3αβS--hydroxyoct-1-yl)bicyclo[3.2.0]hept-6-ylidene]aminooxyacetic acid] | 1400
15 | O=C(O)CON=C1CC2C1CC(C#CC(O)C1CCCC1)C2O (stereo not drawn) [Compound 4, N--[2-endo-hydroxy-3-exo-(3-hydroxy-3-cyclopentylprop-1-ynyl)bicyclo[3.2.0]hept-6-ylidene]aminooxyacetic acid] | 12.5
16 | O=C(O)CON=C1CC2C1CC(CCC(O)C1CCCCC1)C2O (stereo not drawn) [Compound 8, N--[2-endo-hydroxy-3-exo-(3-hydroxy-3-cyclohexylprop-1-yl)bicyclo[3.2.0]hept-6-ylidene]aminooxyacetic acid] | 88

Further lines, results first:

Row | IC50 [nM] | SMILES
17 | 8.4 | O=C(O)CCON=C1CC2C1CC(C#CC(O)C1CCCCC1)C2O (stereo not drawn) [Compound 18, N--[2-endo-hydroxy-3-exo-(3-hydroxy-3-cyclohexylprop-1-ynyl)bicyclo[3.2.0]hept-6-ylidene]-3-aminooxypropionic acid]
18 | 1300 | CCCCCCCC(O)CCC1CC2C(=NOCCC(=O)O)CC2C1O (stereo not drawn) [Compound 22, N--[2-endo-hydroxy-3-exo-(3-hydroxydec-1-yl)bicyclo[3.2.0]hept-6-ylidene]-3-aminooxypropionic acid]
19 | 117 | CCCCCCCC(O)C#CC1CC2C(=NOCCC(=O)O)CC2C1O (stereo not drawn) [Compound 21, N--[2-endo-hydroxy-3-exo-(3-hydroxydec-1-ynyl)bicyclo[3.2.0]hept-6-ylidene]-3-aminooxypropionic acid]
20 | 1020 | O=C(O)CCON=C1CC2C1CC(CCC(O)C1CCCC1)C2O (stereo not drawn) [Compound 17, N--[2-endo-hydroxy-3-exo-(3-hydroxy-3-cyclopentylprop-1-yl)bicyclo[3.2.0]hept-6-ylidene]-3-aminooxypropionic acid]
21 | 420 | CCCCCC(O)C#CC1CC2C(=NOCCCC(=O)O)CC2C1O (stereo not drawn) [Compound 25, N--[2-endo-hydroxy-3-exo-(3αβS--hydroxyoct-1-ynyl)bicyclo[3.2.0]hept-6-ylidene]-4-aminooxybutyric acid]
22 | 31 | O=C(O)CCON=C1CC2C1CC(C#CC(O)C1CCCC1)C2O (stereo not drawn) [Compound 15, N--[2-endo-hydroxy-3-exo-(3-hydroxy-3-cyclopentylprop-1-ynyl)bicyclo[3.2.0]hept-6-ylidene]-3-aminooxypropionic acid]
23 | 1100 | CCCCCC(O)C#CC1C(O)CC2C(=NOCCCC(=O)O)CC21 (stereo not drawn) [Compound 27, N--[3-endo-hydroxy-2-exo-(3αβS--hydroxyoct-1-ynyl)bicyclo[3.2.0]hept-6-ylidene]-4-aminooxybutyric acid]
24 | 21000 | CCCCCC(O)C#CC1C(O)CC2C(=NOCCC(=O)O)CC21 (stereo not drawn) [Compound 26, N--[3-endo-hydroxy-2-exo-(3αβS--hydroxyoct-1-ynyl)bicyclo[3.2.0]hept-6-ylidene]-3-aminooxypropionic acid]
25 | 2350 | O=C(O)CCON=C1CC2C1CC(CCC(O)C1CCCCC1)C2O (stereo not drawn) [Compound 20, N--[2-endo-hydroxy-3-exo-(3-hydroxy-3-cyclohexylprop-1-yl)bicyclo[3.2.0]hept-6-ylidene]-3-aminooxypropionic acid]
26 | 2200 | CCCCCC(O)CCC1CC2C(=NOCCC(=O)O)CC2C1O (stereo not drawn) [Compound 14, N--[2-endo-hydroxy-3-exo-(3αβS--hydroxyoct-1-yl)bicyclo[3.2.0]hept-6-ylidene]-3-aminooxypropionic acid]
27 | 6.9 | CCCCCC(O)C=CC1CC2C(=NOCCC(=O)O)CC2C1O (stereo not drawn) [Compound 13, N--[2-endo-hydroxy-3-exo-(3αS--hydroxyoct-1-trans-enyl)bicyclo[3.2.0]hept-6-ylidene]-3-aminooxypropionic acid]
